Experimental data taken from article PMC12604929, “Tumor-specific cytotoxicity of pyrazole-based chalcone derivatives in human oral squamous cell carcinoma cell lines” (Turkish Journal of Biology, 2025).
Numbered stars: 1 amine (or outer) side, 2 acyl side, 3 side chain; on linkers, the order of the positions; unused ones are H or OH. Bridge positions count the residues as written; N and C are the ends. Square brackets hold non-standard residues; d marks the D form. Peptide text beside a SMILES is read from it. I, II: the chains in the order shown. Actinocin(9to1) = Cc1c2oc3c(C)ccc(C(=O)[*:1])c3nc-2c(C(=O)[*:2])c(N)c1=O; NMeV = CN[C@H](C(=O)O)C(C)C; Sar = CNCC(=O)O

Experiments:
HSC-2 cells = assay: Cell-cycle analysis (propidium iodide, cell sorting); type: cell-based, human; conditions: HSC-2, 24 h, 1 μM; control 1.9 %
Description: Cell-cycle analysis was performed following the process described in the literature ([Kantoh et al., 2010]; [Nagai et al., 2018]; [Shi et al., 2018]), details of which are presented in a supplementary file. Briefly, cells (approximately 10^6 in number) were fixed with paraformaldehyde in PBS(−) and treated with RNase A. After staining with propidium iodide in the presence of 0.01% Nonidet-40 to prevent cell aggregation, the cells were filtered through Falcon cell strainers and then subjected to cell sorting, analyzed with Cell Sorter Software (version 2.1.2) (SONY Imaging Products and Solution Inc., Kanagawa, Japan).
HSC-2 cells were incubated for 24 h with actinomycin D (Act.D) (positive control of apoptosis induction) or MS4, 7, or 8, or without treatment (control), and subjected to cell cycle analysis. […] D (1 μM) (p < 0.05) from 1.9 % to 12.5%. […] The cell cycle analysis was performed only with HSC-2 cells; therefore, experiments with other OSCC cell lines should be conducted to support the generalization of our findings.
Treated and untreated cells (approximately 10^6 cells) were harvested, fixed with 1% paraformaldehyde in PBS without calcium and magnesium ions [PBS(−)]. Fixed cells were then washed twice with PBS(−) and treated for 30 min with 400 μl of 0.2 mg/ml RNase A (preheated for 10 min at 100 °C to inactivate DNase) to degrade RNA. Cells were then washed twice with PBS(−) and stained for 15 min with 0.01% propidium iodide (PI) in the presence of 0.01% NP-40 in PBS(−) to prevent cell aggregation. After filtering through Falcon® cell strainers ([…]) (Corning, NY, USA) to remove aggregated cells, PI-stained cells were subjected to cell sorting (SH800 Series; SONY Imaging Products and Solutions Inc., Kanagawa, Japan). Cell-cycle analysis was performed with Cell Sorter Software version 2.1.2. (SONY Imaging Products and Solution Inc.).

[1] = tested on: Ca9-22 cells (OSCC, gingival tissue); assay: MTT cytotoxicity assay, Ca9-22; type: cell-based, human; conditions: for TS (C/A) tumor-selectivity index: CC50 HGF / CC50 Ca9-22 (both gingival); for CC50: Homo sapiens, Ca9-22, OSCC, 48 h, MTT, average of three determinations; for PSE (C/A^2)x100 potency-selectivity expression: HGF vs Ca9-22 (both gingival)
Description: (§2) The viable cell number was determined in triplicate by the MTT method, following the approach adopted in previous studies ([Nagai et al., 2018]; [Shi et al., 2018] ). Briefly, the cells were incubated for 2 h with 0.2 mg/mL of MTT, and the formed formazan was dissolved with 0.1 mL of DMSO to determine the relative viable cell number at 560 nm.
(§3) Cells were inoculated at 2×10^3 cells/0.1 ml in a 96-microwell plate. […] Cells were incubated further for 48 h and the relative viable cell number was then determined by the MTT method and expressed as the absorbance of the cell lysate at 560 nm, using a microplate reader (Infinite F50R; TECAN, Männedorf, Switzerland) [49, 50]. Control cells were treated with the same amounts of DMSO and the cell damage induced by DMSO was subtracted from that induced by test agents. The concentration of compound that reduced the viable cell number by 50% (CC50) was determined from the dose–response curve and the mean value of CC50 for each cell type was calculated from triplicate assays.
(§4) Human oral squamous cell carcinoma (OSCC) cell lines [Ca9-22 (derived from gingival tissue); and HSC-2, HSC-3, HSC-4 (derived from tongue)] were purchased from Riken Cell Bank (Tsukuba, Japan). All of these cells were cultured at 37°C in DMEM supplemented with 10% heat-inactivated fetal bovine serum, 100 units/ml, penicillin G and 100 µg/ml streptomycin sulfate under a humidified 5% CO2 atmosphere. Cell morphology was checked periodically under a light microscope (EVOS FL; Thermo Fisher Scientific, Waltham, MA, USA).

[2] = tested on: human OSCC cell lines (Ca9-22, HSC-2, HSC-3, HSC-4); assay: MTT cytotoxicity, four OSCC cell lines together (mean, TS, PSE, type of growth inhibition); type: cell-based; conditions: for type of growth inhibition on the OSCC cell lines: from dose-response curves, Figure 4, cytostatic = without complete cytotoxicity, cytotoxic = complete cell death; for TS (D/B) tumor-selectivity index: mean CC50 normal cells / mean CC50 OSCC cell lines; for CC50: Homo sapiens, mean of Ca9-22, HSC-2, HSC-3, HSC-4, read-out: CC50 OSCC mean (B)
Description: TS was calculated using the following equation: TS=mean CC50 against three normal oral cell types/mean CC50 against four OSCC cell lines (HGF, HPLF, HPC vs. Ca9-22, HSC-2, HSC-3, HSC-4). Since both Ca9-22 and HGF cells were derived from the gingival tissue, the relative sensitivity of these cells was also compared (as: CC50 against HGF/ CC50 against Ca9-22).
PSE was calculated by the following equation: PSE=mean CC50 against three normal oral cell types/(CC50 against four OSCC cell lines)2 × 100 (HGF, HPLF, HPC vs. Ca9-22, HSC-2, HSC-3, HSC-4); and as CC50 against HGF/(CC50 against Ca9-22)2 × 100 using the pair of cell types from the same tissue (gingiva) (see Table 1).
(§1) Estimation of CC50 values. […] The mean pCC50 values for normal cells and tumor cell lines were defined as N and T, respectively.

[3] = MTT cytotoxicity assay, HPLF; type: cell-based, human; conditions: female, human, normal oral cells, average of three determinations
Description: as §2, §3
(§5) All of these cells were cultured at 37°C in DMEM supplemented with 10% heat-inactivated fetal bovine serum, 100 units/ml, penicillin G and 100 µg/ml streptomycin sulfate under a humidified 5% CO2 atmosphere.

[4] = tested on: HSC-4 cells (OSCC, tongue); assay: MTT cytotoxicity assay, HSC-4; type: cell-based, human; conditions: Homo sapiens, HSC-4, 48 h, average of three determinations
Description: as §2, §3, §4

[5] = MTT cytotoxicity, three normal oral cell types together (mean); type: cell-based, human; conditions: female, human; mean of HGF, HPLF, HPC; read-out: CC50 normal oral cells mean (D)
From the text: as §1

[6] = MTT cytotoxicity assay, HGF; type: cell-based, human; conditions: human, human gingival fibroblasts (HGF), normal oral cells, average of three determinations
Description: as §2, §3, §4

[7] = tested on: HSC-3 cells (OSCC, tongue); assay: MTT cytotoxicity assay, HSC-3; type: cell-based, human; conditions: for CC50: Homo sapiens, HSC-3, OSCC, 48 h, MTT, average of three determinations
Description: as §2, §3, §4

[8] = tested on: HSC-2 cells (OSCC, tongue); assay: MTT cytotoxicity assay, HSC-2; conditions: Homo sapiens, HSC-2, 48 h, read-out: CC50 HSC-2
Description: as §2, §3, §4

[9] = MTT cytotoxicity assay, HPC; type: cell-based, human; conditions: female, human, human pulp cells (HPC), normal oral cells, average of three determinations
Description: as §2, §3, §5

Structure (SMILES) | subG1 cell population (HSC-2 cells) [%] | TS (C/A) tumor-selectivity index [1] | type of growth inhibition on the OSCC cell lines [2] | TS (D/B) tumor-selectivity index [2] | CC50 at 48 h [3] [µM] | CC50 [4] [µM] | CC50 at 48 h [5] [µM] | CC50 at 48 h [6] [µM] | CC50 [7] [µM] | CC50 [1] [µM] | CC50 [2] [µM] | CC50 [8] [µM] | CC50 at 48 h [9] [µM] | PSE (C/A^2)x100 potency-selectivity expression [1] | increase of cytotoxicity against HSC-3 compared to MS4 ([7]; relative to unsubstituted phenyl derivative MS4)
Cc1c2oc3c(C)ccc(C(=O)N[C@@H]4C(=O)N[C@H](C(C)C)C(=O)N5CCC[C@H]5C(=O)N(C)CC(=O)N(C)[C@@H](C(C)C)C(=O)O[C@@H]4C)c3nc-2c(C(=O)N[C@@H]2C(=O)N[C@H](C(C)C)C(=O)N3CCC[C@H]3C(=O)N(C)CC(=O)N(C)[C@@H](C(C)C)C(=O)O[C@@H]2C)c(N)c1=O [Act.D, actinomycin D, reference compound] (I: T[dV]P[Sar][NMeV] / II: T[dV]P[Sar][NMeV]; ester I:1-I:C, II:1-II:C; linker I:N-II:N via Actinocin(9to1)) | 12.5 | – | – | – | – | – | – | – | – | – | – | – | – | – | –
O=c1[nH]cc(F)c(=O)[nH]1 [Compound 5-FU, 5-fluorouracil, reference compound] | – | > 30.3 | cytostatic effects | > 28.6 | – | – | – | – | – | – | – | – | – | – | –
COc1cccc2c1C(=O)c1c(O)c3c(c(O)c1C2=O)C[C@@](O)(C(=O)CO)C[C@@H]3O[C@H]1C[C@H](N)[C@H](O)[C@H](C)O1 [DXR, doxorubicin, reference compound] | – | >45.5 | cytotoxic effects | >54.9 | > 10 | 0.09 | > 9.7 | > 10 | 0.29 | 0.22 | 0.18 | 0.12 | 9.2 | – | –
C/C(=N\Nc1ccc(S(N)(=O)=O)cc1)c1ccccc1 [MS1, (E)-4-(2-(1-phenylethylidene)hydrazinyl)benzenesulfonamide] | – | 2.5 | cytostatic effects | 4.5 | 246 | 15.7 | 116 | 50.7 | 53.7 | 20 | 25.9 | 14.3 | 51 | – | –
CN(C)C=NS(=O)(=O)c1ccc(-n2cc(C=O)c(-c3ccccc3)n2)cc1 [MS2] | – | 7.1 | cytotoxic effects | 4.5 | 262 | 63 | 241 | 245 | 74.3 | 34.3 | 53.3 | 41.3 | 214 | – | –
NS(=O)(=O)c1ccc(-n2cc(C=O)c(-c3ccccc3)n2)cc1 [MS3, 4-(4-formyl-3-phenyl-1H-pyrazol-1-yl) benzenesulfonamide] | – | 7.8 | cytotoxic effects | 4.7 | 217 | 46.3 | 230 | 253 | 51.7 | 32.3 | 48.6 | 64 | 221 | – | –
Cc1ccc(C(=O)/C=C/c2cn(-c3ccc(S(N)(=O)=O)cc3)nc2-c2ccccc2)cc1 [MS5, (E)-4-(4-(3-Oxo-3-(p-tolyl)prop-1-en-1-yl)-3-phenyl-1H-pyrazol-1-yl)benzenesulfonamide] | – | 88.8 | cytostatic effects | >19.1 | > 400 | 3.1 | > 192 | 145 | 34.7 | 1.6 | 10.1 | 0.9 | 30.3 | 5426 | –
COc1ccc(C(=O)/C=C/c2cn(-c3ccc(S(N)(=O)=O)cc3)nc2-c2ccccc2)cc1 [MS6, (E)-4-(4-(3-(4-Methoxyphenyl)-3-oxoprop-1-en-1-yl)-3-phenyl-1H-pyrazol-1-yl)benzenesulfonamide] | – | 66.5 | cytotoxic effects | 33.9 | 99.7 | 3.3 | 120 | 209 | 3.6 | 3.1 | 3.5 | 4.1 | 51.9 | 2115 | 1.5–2 times
COc1ccc(C(=O)/C=C/c2cn(-c3ccc(S(N)(=O)=O)cc3)nc2-c2ccccc2)cc1OC [MS9, (E)-4-(4-(3-(3,4-Dimethoxyphenyl)-3-oxoprop-1-en-1-yl)-3-phenyl-1H-pyrazol-1-yl)benzenesulfonamide] | – | >40.1 | mixed effects | >9.0 | > 400 | 83 | > 400 | > 400 | 35 | 10 | 44.6 | 50.3 | > 400 | – | –
NS(=O)(=O)c1ccc(-n2cc(/C=C/C(=O)c3cccs3)c(-c3ccccc3)n2)cc1 [MS10, (E)-4-(4-(3-Oxo-3-(thiophen-2-yl)prop-1-en-1-yl)-3-phenyl-1H-pyrazol-1-yl)benzenesulfonamide] | – | 26.4 | mixed effects | 25.9 | 121 | 1.78 | 48 | 16.6 | 4.63 | 0.63 | 1.86 | 0.38 | 6.7 | 4191 | –
